Data: paper PMC10501326, “A Phase I Study of the Pan-Notch Inhibitor CB-103 for Patients with Advanced Adenoid Cystic Carcinoma and Other Tumors” (Cancer Research Communications, 2023)

Assay: Phase I/II safety and tolerability: DLTs and treatment-related adverse events (CTCAE v4.03)
Assay type: in vivo
From the text: The study was an open-label, nonrandomized, phase I/II dose-escalation study with planned expansion cohorts. […] Part B was a potential expansion phase at the MTD/RP2D to determine preliminary evidence of antitumor activity and to confirm safety among patients stratified by preselected cancer indications.
Part A was based on a two-parameter Bayesian logistic regression model (BLRM) to investigate safety and tolerability of sequentially enrolled dose cohorts of 3–6 patients. The first 2 participants of each cohort were enrolled in a staggered approach with at least 1 day apart between first dosing.
12-lead electrocardiograms and Holter safety monitoring with periodic cardiac imaging was employed. Efficacy assessments used RECIST v1.1 applied to CT/MRI scans performed at screening and every 8 weeks; or evaluated complete remission with complete hematologic recovery by National Comprehensive Cancer Network guideline criteria for T-ALL/T-LBL. Adherence to study drug administration was evaluated using both patient diaries and capsule counts.
Secondary endpoints included assessment of clinical benefit rate [CBR; defined as achieving complete and/or partial response and/or stable disease (SD) at prespecified benchmarks], duration of response, progression-free survival (PFS) and overall survival (OS), and plasma pharmacokinetics.
The SS was the primary population for all safety and efficacy analyses, except for determination of dose-DLT relationship.
Under this model, and accounting for dropouts and some additional patients enrolled to each cohort, approximately 55 patients were anticipated to enroll in dose escalation and approximately 45 patients in the confirmatory phase. […] All statistical analyses were analyzed using SAS v9.4 software.

[1] = N = 79, per-patient, CTCAE v4.03

## CC(C)(C)c1ccc(Oc2ccc(N)cn2)cc1 [CB-103]
12 dose-escalation cohorts (n = 64)
  Number of DLTs observed: Two
5 days on, 2 days off weekly
  Recommended phase II dose (RP2D): 500 mg twice daily
CH8 522 mg QD, N=4
  N DLT: 1
CH11 400 mg BID, 5/2, N=6
  N DLT: 1
N = 79
  Grade 4 TRAE elevated lipase: ^aThe two TRAEs classified as grade 4 were elevated lipase (one event) and elevated liver function tests (one event).
  Grade 4 TRAE elevated liver function tests: ^aThe two TRAEs classified as grade 4 were elevated lipase (one event) and elevated liver function tests (one event).
[1]
  TRAE Anemia, any grade: 13 (16) N (%)
  TRAE Anemia, grade 1–2: 9 (11) N (%)
  TRAE Anemia, grade 3: 4 (5) N (%)
  TRAE Any AE, any grade: 60 (76) N (%)
  TRAE Any AE, grade 1–2: 47 (60) N (%)
  TRAE Any AE, grade 3: 13 (16) N (%)
  TRAE Any AE, grade 4: 2 (3) N (%)
  TRAE Blood and lymphatic system disorders, any grade: 13 (17) N (%)
  TRAE Blood and lymphatic system disorders, grade 1–2: 9 (11) N (%)
  TRAE Blood and lymphatic system disorders, grade 3: 4 (5) N (%)
  TRAE Diarrhea, any grade: 10 (13) N (%)
  TRAE Diarrhea, grade 1–2: 10 (13) N (%)
  TRAE Dyschromatopsia, any grade: 15 (19) N (%)
  TRAE Dyschromatopsia, grade 1–2: 15 (19) N (%)
  TRAE Dyspepsia, any grade: 10 (13) N (%)
  TRAE Dyspepsia, grade 1–2: 10 (13) N (%)
  TRAE Eye disorders, any grade: 37 (47) N (%)
  TRAE Eye disorders, grade 1–2: 36 (46) N (%)
  TRAE Eye disorders, grade 3: 1 (1) N (%)
  TRAE Fatigue, any grade: 9 (11) N (%)
  TRAE Fatigue, grade 1–2: 9 (11) N (%)
  TRAE Gastrointestinal disorders, any grade: 39 (49) N (%)
  TRAE Gastrointestinal disorders, grade 1–2: 38 (48) N (%)
  TRAE Gastrointestinal disorders, grade 3: 1 (1) N (%)
  TRAE General disorders and administration site conditions, grade 1–2: 9 (11) N (%)
  TRAE General disorders and administration site conditions, grade 3: 1 (1) N (%)
  TRAE Laboratory investigations, any grade: 13 (16) N (%)
  TRAE Laboratory investigations, grade 1–2: 8 (10) N (%)
  TRAE Laboratory investigations, grade 3: 5 (6) N (%)
  TRAE Nausea, any grade: 17 (22) N (%)
  TRAE Nausea, grade 1–2: 17 (22) N (%)
  TRAE Skin and subcutaneous tissue disorders, any grade: 8 (10) N (%)
  TRAE Skin and subcutaneous tissue disorders, grade 1–2: 6 (8) N (%)
  TRAE Skin and subcutaneous tissue disorders, grade 3: 2 (3) N (%)
  TRAE Vision blurred, any grade: 12 (15) N (%)
  TRAE Vision blurred, grade 1–2: 12 (15) N (%)
  TRAE Visual impairment, any grade: 8 (10) N (%)
  TRAE Visual impairment, grade 1–2: 7 (9) N (%)
  TRAE Visual impairment, grade 3: 1 (1) N (%)
  TRAE Vomiting, any grade: 9 (11) N (%)
  TRAE Vomiting, grade 1–2: 8 (10) N (%)
  TRAE Vomiting, grade 3: 1 (1) N (%)
SS population (n = 79)
  Grade 3 or 4 TRAEs, number reported: 26
All patients
  Patients who interrupted or required dose adjustment: 32 patients (%)
Cohort 8 (552 mg daily dose)
  DLT: patients with asymptomatic grade 3 elevation in gamma-glutamyl transferase leading to drug discontinuation: 1 patient
Cohort 11 (400 mg twice daily, 5 days on and 2 off each week), dose interruption, continued at reduced dose
  DLT observed in cohort 11: grade 3 visual impairment
Dose escalation up to 500 mg twice daily 5/2
  MTD: not reached
In vivo
  Resumed at the dose prior to interruption: 81 % of the time
N = 79
  Deaths related to study treatment: no drug-related deaths
  Grade 3–4 TRAE anemia: 7 events
  Grade 3–4 TRAE elevated liver function tests: 5 events
  Grade 3–4 TRAE elevated serum amylase or lipase: 3 events
